Measured values from EP4578939A1, “MYC[…]. BASED ON VARIOUS CARBON-NITROGEN METABOLIC […], METHOD FOR ISOLATING SAME, AND USE THEREOF” (Peng, Guanghao, priority 2022, dated 2024).
Where two headings read alike, the source gives them in different places.

System: strain YT
Assay: inhibition of nitrification inhibitors on nitrification activity and growth
Assay type: cell-based, Mycobacterium sp.
Conditions: for inhibition at 5000 µM: Mycobacterium; for effect on growth of strain YT: pure culture with two nitrogen sources; for effect on nitrification activity of strain YT: pure culture
Method: The nitrogen contents of the two nitrogen sources were equal in a modified Stephenson medium with (NH4)2SO4 as a nitrogen source (NH4)2SO4 content was 2.0g/L) and a modified Stephenson medium with L-arginine hydrochloride (C6H14N4O2•HCl) as a nitrogen source (C6H14N4O2•HCl content was 1.6 g/L).
When sodium pyruvate was added as a carbon source in the design of a culture medium, 1.0M sodium pyruvate solution (the concentration was calculated in terms of pyruvic acid) was prepared firstly, the pH was adjusted to the range of 7.0-7.2, and the solution was sterilized separately for later use. Before use, 1ml of 1.0M sodium pyruvate solution was added to about 100ml of modified Stevenson culture medium with (NH4)2SO4 as a nitrogen source or L-arginine hydrochloride (C6H14N4O2•HCl) as a nitrogen source, and the pyruvic acid concentration of the culture system was designed to be 0.01M.
Four kinds of nitrification inhibitors 4-amino-1,2,4-triazole (ATC), dicyandiamide (DCD, C2H4N4), aminoguanidine hydrochloride (CH6N4•HCl), and guanylthiourea (C2H6N4S) were selected. The four nitrification inhibitors were prepared with a concentration of 500mM, respectively, after the solutions were filtered and sterilized, 1ml of the four nitrification inhibitors with a concentration of 500mM was added into the two medium with different nitrogen sources, such that the corresponding concentration of each of the nitrification inhibitors in the systems was 5 mM.
Two mediums with different nitrogen sources were respectively subjected to 5 treatments, namely without addition of an inhibitor, adding ATC, adding DCD, adding aminoguanidine hydrochloride, and adding guanylthiourea as shown in the table below; the YT system without addition of an inhibitor and the system without inoculation of strain YT and only addition of an inhibitor were respectively used as a control group; 1ml of PBS-YT bacterial liquid was inoculated, and 1ml of sterile water was used as a substitute when the inoculation of a bacterial strain was not performed. The total volume of each culture system was equal, it was about 100 ml.
1.5 Culture conditions: the culture was performed in a shaking table with a rotational speed of 180rpm at 28°C.
1.6 Measurement and calculation of indicator: the growth OD600 and pH value of thallus in the culture solution were measured every week, the contents of NH4^+-N, NO2^--N and NOx^--N were measured, the inhibition effect of the nitric oxide synthase (nitrification) activity of different culture systems were calculated and compared.
Nitric oxide synthase (nitrification) inhibition rate (%) = (NO2^--NYT concentration - NO2^--Nculture system added with an inhibitor concentration) ×100/ NO2^--NYT concentration

[1] = 168 h, strain YT, L-arginine hydrochloride, inhibitor 5 mM, Culture 7 days (Table 13e), read-out: Nitric oxide synthase (nitrification) activity inhibition rate (%)
[2] = 336 h, strain YT, L-arginine hydrochloride, inhibitor 5 mM, Culture 14 days (Table 13e), read-out: Nitric oxide synthase (nitrification) activity inhibition rate (%)
[3] = 480 h, strain YT, L-arginine hydrochloride, inhibitor 5 mM, Culture 20 days, read-out: Nitric oxide synthase (nitrification) activity inhibition rate (%)
[4] = strain YT, L-arginine hydrochloride, inhibitor 5 mM, Culture 31 days, read-out: Nitric oxide synthase (nitrification) activity inhibition rate (%)
[5] = strain YT, L-arginine hydrochloride as nitrogen source, inhibitor 5 mM, 7 days (Table 13c)
[6] = strain YT, L-arginine hydrochloride as nitrogen source, inhibitor 5 mM, 14 days (Table 13c)
[7] = strain YT, L-arginine hydrochloride as nitrogen source, inhibitor 5 mM, 20 days
[8] = strain YT, L-arginine hydrochloride as nitrogen source, inhibitor 5 mM, 31 days
[9] = strain YT, ammonium sulfate as nitrogen source, inhibitor 5 mM, 7 days (Table 13c)
[10] = strain YT, ammonium sulfate as nitrogen source, inhibitor 5 mM, 14 days (Table 13c)
[11] = strain YT, ammonium sulfate as nitrogen source, inhibitor 5 mM, 20 days
[12] = strain YT, ammonium sulfate as nitrogen source, inhibitor 5 mM, 31 days
[13] = strain YT, L-arginine hydrochloride as nitrogen source, inhibitor 5 mM, 7 days
[14] = strain YT, L-arginine hydrochloride as nitrogen source, inhibitor 5 mM, 14 days
[15] = strain YT, L-arginine hydrochloride as nitrogen source, inhibitor 5 mM, 21 days
[16] = strain YT, L-arginine hydrochloride as nitrogen source, inhibitor 5 mM, 28 days
[17] = strain YT, L-arginine hydrochloride as nitrogen source, inhibitor 5 mM, 35 days
[18] = strain YT, ammonium sulfate as nitrogen source, inhibitor 5 mM, 7 days
[19] = strain YT, ammonium sulfate as nitrogen source, inhibitor 5 mM, 14 days
[20] = strain YT, ammonium sulfate as nitrogen source, inhibitor 5 mM, 21 days
[21] = strain YT, ammonium sulfate as nitrogen source, inhibitor 5 mM, 28 days
[22] = strain YT, ammonium sulfate as nitrogen source, inhibitor 5 mM, 35 days

SMILES: Nn1cnnc1 [ATC, 4-amino-1,2,4-triazole]
- inhibition at 5000 µM (168 h, read-out: Nitric oxide synthase (nitrification) activity inhibition rate (%), strain YT, Ammonium sulfate, inhibitor 5 mM, Culture 7 days (Table 13e)): 100%
- inhibition at 5000 µM [1]: 100%
- inhibition at 5000 µM (336 h, read-out: Nitric oxide synthase (nitrification) activity inhibition rate (%), strain YT, Ammonium sulfate, inhibitor 5 mM, Culture 14 days (Table 13e)): 80%
- inhibition at 5000 µM [2]: 98.6%
- inhibition at 5000 µM (480 h, read-out: Nitric oxide synthase (nitrification) activity inhibition rate (%), strain YT, Ammonium sulfate, inhibitor 5 mM, Culture 20 days): 89.4%
- inhibition at 5000 µM [3]: 99.8%
- inhibition at 5000 µM (read-out: Nitric oxide synthase (nitrification) activity inhibition rate (%), strain YT, Ammonium sulfate, inhibitor 5 mM, Culture 31 days): 25.4%
- inhibition at 5000 µM [4]: 99.8%
- effect on growth of strain YT (inhibitor 5 mM): did not inhibit the growth
- effect on nitrification activity of strain YT (inhibitor 5 mM): always exhibited the inhibiting effect
- NH4^+-N [5]: 15
- NO2^--N [5]: 0
- OD600 [5]: 0.403
- NH4^+-N [6]: 89
- NO2^--N [6]: 0.5
- OD600 [6]: 0.394
- NH4^+-N [7]: 130
- NO2^--N [7]: 0.37
- OD600 [7]: 0.329
- NH4^+-N [8]: 111
- NO2^--N [8]: 0.33
- OD600 [8]: 0.252
- NH4^+-N [9]: 419
- NO2^--N [9]: 0
- OD600 [9]: 0.214
- NH4^+-N [10]: 410
- NO2^--N [10]: 0.50
- OD600 [10]: 0.127
- NH4^+-N [11]: 366
- NO2^--N [11]: 0.5
- OD600 [11]: 0.133
- NH4^+-N [12]: 382
- NO2^--N [12]: 1.17
- OD600 [12]: 0.146

SMILES: N=C(N)NC(N)=S [Amidinothiourea, guanylthiourea]
- inhibition at 5000 µM (504 h, strain YT, Ammonium sulfate, inhibitor 5 mM, Culture 21 days, read-out: Nitric oxide synthase (nitrification) activity inhibition rate (%)): 59.8%
- inhibition at 5000 µM (504 h, strain YT, L-arginine hydrochloride, inhibitor 5 mM, Culture 21 days, read-out: Nitric oxide synthase (nitrification) activity inhibition rate (%)): 72.7%
- inhibition at 5000 µM (672 h, strain YT, Ammonium sulfate, inhibitor 5 mM, Culture 28 days, read-out: Nitric oxide synthase (nitrification) activity inhibition rate (%)): 33.5%
- inhibition at 5000 µM (672 h, strain YT, L-arginine hydrochloride, inhibitor 5 mM, Culture 28 days, read-out: Nitric oxide synthase (nitrification) activity inhibition rate (%)): 77.4%
- inhibition at 5000 µM (strain YT, Ammonium sulfate, inhibitor 5 mM, Culture 7 days (Table 13d), read-out: Nitric oxide synthase (nitrification) activity inhibition rate (%)): 95.6%
- inhibition at 5000 µM (strain YT, Ammonium sulfate, inhibitor 5 mM, Culture 14 days (Table 13d), read-out: Nitric oxide synthase (nitrification) activity inhibition rate (%)): 94.8%
- inhibition at 5000 µM (strain YT, Ammonium sulfate, inhibitor 5 mM, Culture 35 days, read-out: Nitric oxide synthase (nitrification) activity inhibition rate (%)): 11%
- inhibition at 5000 µM (strain YT, L-arginine hydrochloride, inhibitor 5 mM, Culture 14 days (Table 13d), read-out: Nitric oxide synthase (nitrification) activity inhibition rate (%)): 98.3%
- inhibition at 5000 µM (strain YT, L-arginine hydrochloride, inhibitor 5 mM, Culture 35 days, read-out: Nitric oxide synthase (nitrification) activity inhibition rate (%)): 72%
- effect on growth of strain YT (inhibitor 5 mM): can obviously inhibit the growth
- effect on nitrification activity of strain YT (inhibitor 5 mM): also exhibited inhibitory effect
- Nitric oxide synthase (nitrification) activity inhibition rate (%) (strain YT, Ammonium sulfate, inhibitor 5 mM, Culture 35 days): 11.07%
- NH4^+-N [13]: 8.13 mg/L
- NO2^--N [13]: 0 mg/L
- NH4^+-N [14]: 175.90 mg/L
- NO2^--N [14]: 1.72 mg/L
- NH4^+-N [15]: 154.73 mg/L
- NO2^--N [15]: 31.10 mg/L
- NH4^+-N [16]: 138.43 mg/L
- NO2^--N [16]: 25.70 mg/L
- NH4^+-N [17]: 165.02 mg/L
- NO2^--N [17]: 32.26 mg/L
- Nitric oxide synthase (nitrification) activity inhibition rate (%) (strain YT, L-arginine hydrochloride, inhibitor 5 mM, Culture 35 days): 71.62%
- NH4^+-N [18]: 395.07 mg/L
- NO2^--N [18]: 0.02 mg/L
- NH4^+-N [19]: 418.86 mg/L
- NO2^--N [19]: 0.13 mg/L
- NH4^+-N [20]: 407.33 mg/L
- NO2^--N [20]: 1.64 mg/L
- NH4^+-N [21]: 419.92 mg/L
- NO2^--N [21]: 4.57 mg/L
- NH4^+-N [22]: 422.98 mg/L
- NO2^--N [22]: 6.12 mg/L
- inhibition rate on nitric oxide synthase (nitrification) activities (strain YT, two nitrogen sources, before 14 days of culture): ≥ 95%

SMILES: N#CN=C(N)N [DCD, dicyandiamide]
- inhibition at 5000 µM (168 h, strain YT, Ammonium sulfate, inhibitor 5 mM, Culture 7 days (Table 13e), read-out: Nitric oxide synthase (nitrification) activity inhibition rate (%)): 0%
- inhibition at 5000 µM [1]: 0%
- inhibition at 5000 µM (336 h, strain YT, Ammonium sulfate, inhibitor 5 mM, Culture 14 days (Table 13e), read-out: Nitric oxide synthase (nitrification) activity inhibition rate (%)): 0%
- inhibition at 5000 µM [2]: 7.14%
- inhibition at 5000 µM (480 h, strain YT, Ammonium sulfate, inhibitor 5 mM, Culture 20 days, read-out: Nitric oxide synthase (nitrification) activity inhibition rate (%)): 32.4%
- inhibition at 5000 µM [3]: 0.72%
- inhibition at 5000 µM (strain YT, Ammonium sulfate, inhibitor 5 mM, Culture 31 days, read-out: Nitric oxide synthase (nitrification) activity inhibition rate (%)): 8.62%
- inhibition at 5000 µM [4]: 0%
- effect on growth of strain YT (inhibitor 5 mM): did not inhibit the growth
- effect on nitrification activity of strain YT (inhibitor 5 mM): did not impose an inhibitory effect
- NH4^+-N [5]: 18
- NO2^--N [5]: 0.50
- OD600 [5]: 0.397
- NH4^+-N [6]: 121
- NO2^--N [6]: 32.5
- OD600 [6]: 0.438
- NH4^+-N [7]: 191
- NO2^--N [7]: 152.77
- OD600 [7]: 0.415
- NH4^+-N [8]: 173
- NO2^--N [8]: 153.87
- OD600 [8]: 0.378
- NH4^+-N [9]: 421
- NO2^--N [9]: 1.00
- OD600 [9]: 0.207
- NH4^+-N [10]: 408
- NO2^--N [10]: 2.50
- OD600 [10]: 0.121
- NH4^+-N [11]: 355
- NO2^--N [11]: 3.20
- OD600 [11]: 0.127
- NH4^+-N [12]: 382
- NO2^--N [12]: 5.11
- OD600 [12]: 0.128
